Measured values: patent publication US8450494B2, “Disubstituted benzamide derivatives as glucokinase (GK) activators” (Cadila Healthcare Limited, priority 2010, dated 2013)

Molecular target: T1, glucokinase (GK) enzyme (Homo sapiens, UniProt P35557)
T1 sequence (P35557 1-465): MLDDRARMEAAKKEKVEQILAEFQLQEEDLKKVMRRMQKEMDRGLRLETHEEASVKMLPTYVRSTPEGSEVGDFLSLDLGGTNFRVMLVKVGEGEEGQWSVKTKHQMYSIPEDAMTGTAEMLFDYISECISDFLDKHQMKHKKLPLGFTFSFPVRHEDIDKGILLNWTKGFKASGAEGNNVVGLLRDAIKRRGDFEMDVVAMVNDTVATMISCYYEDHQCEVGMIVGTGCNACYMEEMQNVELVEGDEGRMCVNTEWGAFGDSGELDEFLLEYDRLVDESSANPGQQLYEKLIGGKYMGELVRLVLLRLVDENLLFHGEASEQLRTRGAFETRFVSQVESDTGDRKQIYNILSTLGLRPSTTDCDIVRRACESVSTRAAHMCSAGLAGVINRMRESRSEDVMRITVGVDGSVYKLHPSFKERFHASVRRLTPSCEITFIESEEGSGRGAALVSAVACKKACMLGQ
Assay: In-vitro glucokinase (GK) enzyme activation assay (coupled with glucose-6-phosphate dehydrogenase, absorbance at 340)
Format: biochemical
Settings: glucose 2.5 mM, ATP 1 mM; for activity at 0.1 µM / activity at 1 µM / activity at 5 µM / activity at 10 µM: read-out: % of GK activity wrt DMSO
Procedure: The compound of the invention was incubated with glucokinase (GK) enzyme (0.2 units) for 10 minutes in assay buffer at 26° C. After incubation, addition of glucose-6-phosphate dehydrogenase (2.5 units), ATP (1 mM) and glucose (2.5 mM). Absorbance is measured at 340 nm for 15 minutes with 10 second interval using UV transparent plate in kinetic mode on Spectramax-190 at 30° C.

Row | SMILES | activity at 0.1 µM (compound 0.1 uM) [%] | activity at 1 µM (compound 1 uM) [%] | activity at 5 µM (compound 5 uM) [%] | activity at 10 µM (compound 10 uM) [%] | % of GK activity wrt DMSO (compound 0.1 uM) [%] | % of GK activity wrt DMSO (compound 1 uM) [%] | % of GK activity wrt DMSO (compound 5 uM) [%] | % of GK activity wrt DMSO (compound 10 uM) [%] | EC50 (GK activation) [µM]
1 | COCC(C)Oc1cc(Oc2ccc(-c3nnc(C)o3)cc2)cc(C(=O)Nc2ncc(C(=O)O)s2)c1 (centres unmarked) [Example 2.18, 2-{3-[(1-Methoxypropan-2-yl)oxy]-5-[4-(5-methyl-1,3,4-oxadiazol-2-yl)phenoxy]benzamido}thiazole-5-carboxylic acid] | 105 | 149 | 251 | 260 | – | – | – | – | –
2 | CCOC(=O)Cc1csc(NC(=O)c2cc(Oc3ccc(-c4nnc(C)o4)cc3)cc(OC(C)COC)c2)n1 (centres unmarked) [Example 2.7, Ethyl 2-(2-(3-((1-methoxypropan-2-yl)oxy)-5-(4-(5-methyl-1,3,4-oxadiazol-2-yl)phenoxy)benzamido)thiazol-4-yl)acetate] | 288 | 349 | 353 | 345 | – | – | – | – | –
3 | COCC(C)Oc1cc(Oc2ccc(-c3nnc(C)o3)cc2)cc(C(=O)Nc2nc(C)cs2)c1 (centres unmarked) [Example 2.10, 3-((1-Methoxypropan-2-yl)oxy)-5-(4-(5-methyl-1,3,4-oxadiazol-2-yl)phenoxy)-N-(4-methylthiazol-2-yl)benzamide] | 310 | 370 | 368 | 356 | – | – | – | – | –
4 | COC[C@H](C)Oc1cc(Oc2ccc(-c3nnc(C)o3)cc2)cc(C(=O)Nc2ncc(C)s2)c1 [Example 2.11, (S)-3-((1-Methoxypropan-2-yl)oxy)-5-(4-(5-methyl-1,3,4-oxadiazol-2-yl)phenoxy)-N-(5-methylthiazol-2-yl)benzamide] | 235 | 258 | 191 | 243 | – | – | – | – | –
5 | COCC(C)Oc1cc(Oc2ccc(-c3nnc(C)o3)cc2)cc(C(=O)Nc2nc(CC(=O)O)cs2)c1 (centres unmarked) [Example 2.8] | – | – | – | – | 239.5 | 323.6 | 336.3 | 328.9 | –
6 | C=CCCOc1cc(Oc2ccc(-c3nnc(C)o3)cc2)cc(C(=O)Nc2ncc(C)s2)c1 [Example 2.13, 3-(But-3-en-1-yloxy)-5-(4-(5-methyl-1,3,4-oxadiazol-2-yl)phenoxy)-N-(5-methylthiazol-2-yl)benzamide] | 112 | 180 | 233 | 215 | – | – | – | – | –
7 | Cc1nnc(-c2ccc(Oc3cc(OCC4CCOCC4)cc(C(=O)Nc4nccs4)c3)cc2)o1 [Example 2.6] | – | – | – | – | 128.2 | 196.4 | 251.8 | 249.3 | –
8 | COCC(C)Oc1cc(Oc2ccc(-c3nnc(C)o3)cc2)cc(C(=O)Nc2nccs2)c1 (centres unmarked) [Example 1.1, 3-(1-Methoxypropan-2-yloxy)-5-(4-(5-methyl-1,3,4-oxadiazol-2-yl)phenoxy)-N-(thiazol-2-yl)benzamide] | 276 | 309 | 316 | 309 | – | – | – | – | 0.021
9 | C=CCOc1cc(Oc2ccc(-c3nnc(C)o3)cc2)cc(C(=O)Nc2ncc(C)s2)c1 [Example 2.14, 3-(Allyloxy)-5-(4-(5-methyl-1,3,4-oxadiazol-2-yl)phenoxy)-N-(5-methylthiazol-2-yl)benzamide] | 116 | 184 | 241 | 215 | – | – | – | – | –

The next lines start with the values.

Row | activity at 0.1 µM (compound 0.1 uM) [%] | activity at 1 µM (compound 1 uM) [%] | activity at 5 µM (compound 5 uM) [%] | activity at 10 µM (compound 10 uM) [%] | % of GK activity wrt DMSO (compound 0.1 uM) [%] | % of GK activity wrt DMSO (compound 1 uM) [%] | % of GK activity wrt DMSO (compound 5 uM) [%] | % of GK activity wrt DMSO (compound 10 uM) [%] | EC50 (GK activation) [µM] | SMILES
10 | 223 | 450 | 493 | 488 | – | – | – | – | – | COCC(C)Oc1cc(Oc2ccc(-c3nnc(C4CC4)o3)cc2)cc(C(=O)Nc2nccs2)c1 (centres unmarked) [Example 2.28, 3-(4-(5-Cyclopropyl-1,3,4-oxadiazol-2-yl)phenoxy)-5-((1-methoxypropan-2-yl)oxy)-N-(thiazol-2-yl)benzamide]
11 | 224 | 384 | 439 | 418 | – | – | – | – | – | CCc1nnc(-c2ccc(Oc3cc(OC(C)COC)cc(C(=O)Nc4nccs4)c3)cc2)o1 (centres unmarked) [Example 2.25, 3-(4-(5-Ethyl-1,3,4-oxadiazol-2-yl)phenoxy)-5-((1-methoxypropan-2-yl)oxy)-N-(thiazol-2-yl)benzamide]
12 | – | – | – | – | 252.3 | 433.6 | 518.5 | 470.8 | – | COCC(C)Oc1cc(Oc2ccc(-c3nnc(C4CCCC4)o3)cc2)cc(C(=O)Nc2nccs2)c1 (centres unmarked) [Example 2.31]
13 | 251 | 405 | 436 | 408 | – | – | – | – | – | COC[C@H](C)Oc1cc(Oc2ccc(-c3nnc(C)o3)cc2)cc(C(=O)Nc2nc(C)cs2)c1 [Example 2.20, (S)-3-((1-Methoxypropan-2-yl)oxy)-5-(4-(5-methyl-1,3,4-oxadiazol-2-yl)phenoxy)-N-(4-methylthiazol-2-yl)benzamide]
